Experimental data taken from patent US11396502B2, “Substituted heterocyclic derivatives as PI3K inhibitors” (Incyte Corporation, priority 2018, dated 2022).
Structures can show the parent of a compound that is named as a salt. Where two headings read alike, the source gives them in different places.

Legend:
PI3Kγ (p110γ) = PI3Kγ (p110γ) (Homo sapiens (Human), UniProt P48736); test: PI3K-γ scintillation proximity assay; assay type: biochemical; settings: recombinant human PI3Kγ 13 nM, 20 μM PIP2, 2 μM ATP, 120 min, room temperature
PI3Kγ (p110γ), sequence (P48736 whole entry): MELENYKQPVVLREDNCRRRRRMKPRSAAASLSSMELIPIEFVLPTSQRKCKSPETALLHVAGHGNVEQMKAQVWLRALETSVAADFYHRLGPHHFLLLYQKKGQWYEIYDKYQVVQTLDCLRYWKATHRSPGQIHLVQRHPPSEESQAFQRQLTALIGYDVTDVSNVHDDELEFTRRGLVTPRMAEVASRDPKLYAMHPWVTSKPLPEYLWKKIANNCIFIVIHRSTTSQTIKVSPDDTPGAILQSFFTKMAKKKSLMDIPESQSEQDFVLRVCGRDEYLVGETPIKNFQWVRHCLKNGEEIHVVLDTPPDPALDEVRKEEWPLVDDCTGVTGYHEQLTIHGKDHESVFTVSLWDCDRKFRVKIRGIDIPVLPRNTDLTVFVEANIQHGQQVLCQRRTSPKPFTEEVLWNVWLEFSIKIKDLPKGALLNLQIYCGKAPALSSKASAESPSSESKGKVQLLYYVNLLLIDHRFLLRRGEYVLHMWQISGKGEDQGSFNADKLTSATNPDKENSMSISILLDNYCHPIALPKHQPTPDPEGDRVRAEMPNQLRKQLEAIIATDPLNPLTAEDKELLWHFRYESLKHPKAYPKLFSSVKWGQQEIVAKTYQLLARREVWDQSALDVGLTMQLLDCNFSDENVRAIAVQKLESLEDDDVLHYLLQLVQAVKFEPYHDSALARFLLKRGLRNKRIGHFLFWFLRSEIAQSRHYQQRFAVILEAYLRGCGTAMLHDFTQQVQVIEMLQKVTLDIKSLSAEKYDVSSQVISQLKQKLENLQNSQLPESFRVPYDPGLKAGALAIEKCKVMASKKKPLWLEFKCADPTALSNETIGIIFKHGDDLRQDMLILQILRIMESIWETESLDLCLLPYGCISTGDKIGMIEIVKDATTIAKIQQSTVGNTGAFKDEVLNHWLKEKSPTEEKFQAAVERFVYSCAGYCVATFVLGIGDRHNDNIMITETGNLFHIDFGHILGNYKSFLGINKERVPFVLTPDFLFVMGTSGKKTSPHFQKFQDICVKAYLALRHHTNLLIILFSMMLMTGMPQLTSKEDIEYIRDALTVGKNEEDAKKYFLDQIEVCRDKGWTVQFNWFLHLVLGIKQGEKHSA
Excerpt: Example B. PI3K-γ Scintillation Proximity Assay Materials: [γ-^33P]ATP (10 mCi/mL) and Wheat Germ Agglutinin (WGA) YSi SPA Scintillation Beads was purchased from Perkin Elmer (Waltham, Mass.). Lipid kinase substrate, D-myo-Phosphatidylinositol 4,5-bisphosphate (PtdIns(4,5)P2)D (+)-sn-1,2-di-O-octanoylglyceryl, 3-O-phospho linked (PIP2), CAS 204858-53-7, was purchased from Echelon Biosciences (Salt Lake City, Utah). PI3Kγ (p110γ) Recombinant Human Protein was purchased from Life technology (Grand Island, N.Y.). ATP, MgCl2, DTT, EDTA, MOPS and CHAPS were purchased from Sigma Aldrich (St. Louis, Mo.). The kinase reaction was conducted in polystyrene 384-well Greiner Bio-one white plate from Thermo Fisher Scientific in a final volume of 25 μL. Inhibitors were first diluted serially in DMSO and added to the plate wells before the addition of other reaction components. The final concentration of DMSO in the assay was 2%. The PI3Kγ assay was carried out at room temperature in 20 mM MOPS, pH 6.7, 10 mM MgCl2, 5 mM DTT and CHAPS 0.03%. Reactions were initiated by the addition of ATP, the final reaction mixture consisted of 20 μM PIP2, 2 μM ATP, 0.5 μCi [γ-^33P] ATP, 13 nM PI3Kγ. Reactions were incubated for 120 min and terminated by the addition of 40 μL SPA beads suspended in quench buffer: 163 mM potassium phosphate pH 7.8, 20% glycerol, 25 mM EDTA. The final concentration of SPA beads is 1.0 mg/mL. After the plate sealing, plates were shaken overnight at room temperature and centrifuged at 1500 rpm for 10 min, the radioactivity of the product was determined by scintillation counting on Topcount (Perkin-Elmer). IC50 determination was performed by fitting the curve of percent of the solvent control activity versus the log of the inhibitor concentration using the GraphPad Prism 6.0 software.

PI3Kδ (p110δ/p85α) = PI3Kδ (p110δ/p85α) (Homo sapiens (Human), UniProt O00329); test: PI3Kδ scintillation proximity assay; assay type: biochemical; settings: recombinant human PI3Kδ 3.4 nM, 20 μM PIP2, 2 μM ATP, 120 min, room temperature
PI3Kδ (p110δ/p85α), sequence (O00329 whole entry): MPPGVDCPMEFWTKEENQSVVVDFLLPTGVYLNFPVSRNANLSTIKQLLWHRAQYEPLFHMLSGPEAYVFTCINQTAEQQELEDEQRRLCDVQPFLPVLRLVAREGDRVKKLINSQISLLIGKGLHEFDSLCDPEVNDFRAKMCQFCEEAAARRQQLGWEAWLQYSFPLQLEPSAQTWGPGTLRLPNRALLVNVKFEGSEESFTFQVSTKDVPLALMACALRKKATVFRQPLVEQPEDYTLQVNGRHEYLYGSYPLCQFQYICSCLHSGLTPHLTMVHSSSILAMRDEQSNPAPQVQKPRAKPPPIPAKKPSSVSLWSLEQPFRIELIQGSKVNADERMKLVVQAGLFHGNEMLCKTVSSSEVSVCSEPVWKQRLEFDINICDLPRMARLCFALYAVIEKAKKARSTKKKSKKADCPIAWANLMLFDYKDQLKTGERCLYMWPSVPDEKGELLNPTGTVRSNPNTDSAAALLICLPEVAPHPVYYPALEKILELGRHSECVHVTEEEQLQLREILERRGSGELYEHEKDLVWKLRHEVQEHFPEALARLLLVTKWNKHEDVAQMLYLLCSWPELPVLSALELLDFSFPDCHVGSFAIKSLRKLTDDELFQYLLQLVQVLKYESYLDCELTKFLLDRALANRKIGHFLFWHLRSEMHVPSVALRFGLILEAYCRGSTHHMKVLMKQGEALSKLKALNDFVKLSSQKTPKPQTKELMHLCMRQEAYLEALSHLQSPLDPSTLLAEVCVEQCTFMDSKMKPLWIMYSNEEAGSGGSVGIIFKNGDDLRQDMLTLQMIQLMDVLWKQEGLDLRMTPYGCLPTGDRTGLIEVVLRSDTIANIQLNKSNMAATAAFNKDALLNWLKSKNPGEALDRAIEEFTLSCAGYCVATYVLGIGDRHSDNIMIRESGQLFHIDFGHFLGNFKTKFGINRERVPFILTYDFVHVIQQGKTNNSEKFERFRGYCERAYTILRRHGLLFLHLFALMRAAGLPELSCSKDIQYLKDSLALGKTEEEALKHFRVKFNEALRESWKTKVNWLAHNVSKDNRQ
PI3Kδ (p110δ/p85α), sequence (P27986 whole entry partner): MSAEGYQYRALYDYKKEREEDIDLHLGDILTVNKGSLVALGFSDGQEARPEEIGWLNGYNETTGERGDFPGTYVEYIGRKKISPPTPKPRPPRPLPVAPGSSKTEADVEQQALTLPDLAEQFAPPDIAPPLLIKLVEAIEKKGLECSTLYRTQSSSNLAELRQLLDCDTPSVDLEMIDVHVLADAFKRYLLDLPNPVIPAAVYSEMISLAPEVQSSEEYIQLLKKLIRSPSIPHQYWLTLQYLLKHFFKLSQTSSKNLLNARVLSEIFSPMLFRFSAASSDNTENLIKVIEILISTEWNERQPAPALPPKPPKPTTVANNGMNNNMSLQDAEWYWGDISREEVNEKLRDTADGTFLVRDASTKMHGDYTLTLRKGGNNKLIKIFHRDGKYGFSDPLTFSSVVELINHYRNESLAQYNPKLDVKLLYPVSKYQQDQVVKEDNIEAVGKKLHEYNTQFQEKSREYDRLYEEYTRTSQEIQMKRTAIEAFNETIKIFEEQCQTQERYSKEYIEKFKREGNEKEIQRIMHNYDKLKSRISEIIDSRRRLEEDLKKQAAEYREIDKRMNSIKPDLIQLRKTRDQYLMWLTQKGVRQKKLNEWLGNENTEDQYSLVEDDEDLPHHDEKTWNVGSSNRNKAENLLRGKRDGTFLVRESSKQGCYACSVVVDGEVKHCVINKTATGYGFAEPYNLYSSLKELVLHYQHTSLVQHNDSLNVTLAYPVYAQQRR
Excerpt: Example C. PI3Kδ Scintillation Proximity Assay Materials: [γ-^33P]ATP (10 mCi/mL) and Wheat Germ Agglutinin (WGA) YSi SPA Scintillation Beads was purchased from Perkin Elmer (Waltham, Mass.). Lipid kinase substrate, D-myo-Phosphatidylinositol 4,5-bisphosphate (PtdIns(4,5)P2)D (+)-sn-1,2-di-O-octanoylglyceryl, 3-O-phospho linked (PIP2), CAS 204858-53-7, was purchased from Echelon Biosciences (Salt Lake City, Utah). PI3Kδ (p110δ/p85α) Recombinant Human Protein was purchased from Eurofins (St Charles, Mo.). ATP, MgCl2, DTT, EDTA, MOPS and CHAPS were purchased from Sigma Aldrich (St. Louis, Mo.). The kinase reaction was conducted in polystyrene 384-well Greiner Bio-one white plate from Thermo Fisher Scientific in a final volume of 25 μL. Inhibitors were first diluted serially in DMSO and added to the plate wells before the addition of other reaction components. The final concentration of DMSO in the assay was 2%. The PI3Kδ assay was carried out at room temperature in 20 mM MOPS, pH 6.7, 10 mM MgCl2, 5 mM DTT and CHAPS 0.03%. Reactions were initiated by the addition of ATP, the final reaction mixture consisted of 20 μM PIP2, 2 μM ATP, 0.5 μCi [γ-^33P] ATP, 3.4 nM PI3Kδ. Reactions were incubated for 120 min and terminated by the addition of 40 μL SPA beads suspended in quench buffer: 163 mM potassium phosphate pH 7.8, 20% glycerol, 25 mM EDTA. The final concentration of SPA beads is 1.0 mg/mL. After the plate sealing, plates were shaken overnight at room temperature and centrifuged at 1500 rpm for 10 min, the radioactivity of the product was determined by scintillation counting on Topcount (PerkinElmer). IC50 determination was performed by fitting the curve of percent of the solvent control activity versus the log of the inhibitor concentration using the GraphPad Prism 6.0 software.

[1] = system: Phosphorylated Ribosomal Protein S6 (RPS6) in THP-1 cells; test: THP-1 RPS6 ELISA assay; assay type: cell-based, Human; settings: 2 hours compound, 10 nM MCP-1 for 15 minutes, Phospho-RPS6 ELISA, read-out: PI3Kγ_THP1_RPS6_ELISA IC50
Experimental: Example A. THP-1 RPS6 ELISA Assay
To measure the Phosphorylated Ribosomal Protein S6 (RPS6) in cell lysates, THP-1 cells (Human Acute Monocytic Leukemia) are purchased from ATCC (Manassas, Va.) and maintained in RPMI with 10% FBS (Gibco/Life Technologies, Carlsbad, Calif.). For the assay, THP-1 cells are serum starved overnight in RPMI, then plated in RPMI (2×10^5 cells/well in 90 μL) into 96-well flat-bottom tissue culture treated plates (Corning, Corning, N.Y.), in the presence or absence of a concentration range of test compounds. Covered plates are incubated for 2 hours at 37° C., 5% CO2 then treated with or without 10 nM MCP-1 (MYBioSource, San Diego, Calif.) for 15 minutes at 37° C., 5% CO2. Plates are centrifuged at 1600 RPM and supernatants are removed. Cells are lysed in Lysis Buffer (Cell Signaling, Danvers, Mass.) with Protease Inhibitor (Calbiochem/EMD, Germany), PMSF (Sigma, St Louis Mo.), HALTS (Thermo Fisher, Rockford, Ill.) for 30 min on wet ice. Cell lysates are frozen at −80° C. before testing. The lysates are tested in the Human/Mouse/Rat Phospho-RPS6 ELISA (R&D Systems, Inc. Minn, Minn.). The plate is measured using a microplate reader (SpectraMax M5—Molecular Devices, LLC Sunnyvale, Calif.) set to 450 nm with a wavelength correction of 540. IC50 determination is performed by fitting the curve of inhibitor percent inhibition versus the log of the inhibitor concentration using the GraphPad Prism 5.0 software.

[2] = Homo sapiens, THP-1, serum starved THP-1 cells

SMILES | IC50 (PI3Kγ (p110γ)) [nM] | IC50 (PI3Kδ (p110δ/p85α)) [nM] | IC50 [1, 2] [nM] | IC50 ([1]; serum starved THP-1 cells) [nM]
Cc1nc(-c2cc(-c3cc4c(c(S(C)(=O)=O)c3)C(=O)N([C@@H](C)C3CC3)C4)ccn2)[nH]c1C(=O)NC(C)C(F)(F)F (single isomer, unassigned) [Example 7g] | < 100 | 100 to 500 | – | > 1000
CCC(C)NC(=O)c1[nH]c(-c2cc(-c3cc4c(c(S(C)(=O)=O)c3)C(=O)N([C@@H](C)C3CC3)C4)ccn2)nc1C (single isomer, unassigned) [Example 7l] | < 100 | 100 to 500 | – | 100 to 500
Cc1nc(-c2cc(-c3cc4c(c(S(C)(=N)=O)c3)C(=O)N([C@@H](C)C3CC3)C4)ccn2)[nH]c1C (single isomer, unassigned) [Example 22] | < 100 | 500 to 2000 | 500 to 1000 | –
CN=S(C)(=O)c1cc(-c2ccnc(-c3nc(C)c(C)[nH]3)c2)cc2c1C(=O)N([C@@H](C)C1CC1)C2 (single isomer, unassigned) [Example 25] | < 100 | 500 to 2000 | 500 to 1000 | –
Cc1cnc(-c2cc(-c3cc4c(c(N=S(C)(C)=O)c3)C(=O)N([C@@H](C)C3CC3)C4)ccn2)[nH]1 (single isomer, unassigned) [Example 26] | < 100 | > 2000 | > 1000 | –
Cc1nc(-c2cc(-c3cc(Cl)c4c(c3)CN([C@@H](C)C3CC3)C4=O)ccn2)[nH]c1C [Example 1, (S)-7-Chloro-2-(1-cyclopropylethyl)-5-(2-(4,5-dimethyl-1H-imidazol-2-yl)pyridin-4-yl)isoindolin-1-one] | < 100 | 100 to 500 | 500 to 1000 | –
Cc1nc(-c2cc(-c3cc4c(c(S(C)(=O)=O)c3)C(=O)N([C@@H](C)C3CC3)C4)ccn2)[nH]c1C [Example 2, (S)-2-(1-Cyclopropylethyl)-5-(2-(4,5-dimethyl-1H-imidazol-2-yl)pyridin-4-yl)-7-(methylsulfonyl)isoindolin-1-one Trifluoroacetate Salt] | < 100 | 100 to 500 | 500 to 1000 | –
Cc1[nH]c(-c2cc(-c3ccc4c(c3)CN([C@@H](C)C3CC3)C4=O)ccn2)nc1C(=O)NC(C)C [Example 3, (S)-2-(4-(2-(1-Cyclopropylethyl)-1-oxoisoindolin-5-yl)pyridin-2-yl)-N-isopropyl-5-methyl-1H-imidazole-4-carboxamide Trifluoroacetate Salt] | < 100 | 500 to 2000 | > 1000 | –
Cc1nc(-c2cc(-c3cc4c(c(S(C)(=O)=O)c3)C(=O)N([C@@H](C)C3CC3)C4)cnn2)[nH]c1C [Example 8, (S)-2-(1-Cyclopropylethyl)-5-(6-(4,5-dimethyl-1H-imidazol-2-yl)pyridazin-4-yl)-7-(methylsulfonyl)isoindolin-1-one Trifluoroacetate Salt] | < 100 | > 2000 | – | –
Cc1cc(-c2cc(-c3ccc4c(c3)CN([C@@H](C)C3CC3)C4=O)cnn2)[nH]n1 [Example 11, (S)-2-(1-Cyclopropylethyl)-5-(6-(3-methyl-1H-pyrazol-5-yl)pyridazin-4-yl)isoindolin-1-one Trifluoroacetate Salt] | 500 to 2000 | > 2000 | – | –
Cc1nnc(-c2cc(-c3ccc4c(c3)CN([C@@H](C)C3CC3)C4=O)ccn2)[nH]1 [Example 13, (S)-2-(1-Cyclopropylethyl)-5-(2-(5-methyl-4H-1,2,4-triazol-3-yl)pyridin-4-yl)isoindolin-1-one] | < 100 | > 2000 | – | –
Cc1nc(-c2cc(-c3cc4c(c(C(O)CO)c3)C(=O)N([C@@H](C)C3CC3)C4)cnn2)[nH]c1C (stereo partly drawn) [Example 19, 2-((S)-1-Cyclopropylethyl)-7-(1,2-dihydroxyethyl)-5-(6-(4,5-dimethyl-1H-imidazol-2-yl)pyridazin-4-yl)isoindolin-1-one, Trifluoroacetate Salt] | < 100 | > 2000 | – | –
Cc1nc(-c2cc(-c3cc4c(c(S(C)(=N)=O)c3)C(=O)N([C@@H](C)C3CC3)C4)ccn2)[nH]c1C (stereo partly drawn) [Example 21, 2-((S)-1-Cyclopropylethyl)-5-(2-(4,5-dimethyl-1H-imidazol-2-yl)pyridin-4-yl)-7-(S-methylsulfonimidoyl)isoindolin-1-one] | – | – | – | 500 to 1000
CN=S(C)(=O)c1cc(-c2ccnc(-c3nc(C)c(C)[nH]3)c2)cc2c1C(=O)N([C@@H](C)C1CC1)C2 (stereo partly drawn) [Example 24, 2-((S)-1-Cyclopropylethyl)-5-(2-(4,5-dimethyl-1H-imidazol-2-yl)pyridin-4-yl)-7-(N,S-dimethylsulfonimidoyl)isoindolin-1-one] | – | – | – | 100 to 500

More lines, main results first:

IC50 (PI3Kγ (p110γ)) [nM] | IC50 (PI3Kδ (p110δ/p85α)) [nM] | IC50 [1, 2] [nM] | SMILES | IC50 ([1]; serum starved THP-1 cells) [nM]
< 100 | 100 to 500 | > 1000 | Cc1[nH]c(-c2cc(-c3cc4c(c(S(C)(=O)=O)c3)C(=O)N([C@@H](C)C3CC3)C4)ccn2)nc1C(=O)NC1CC(O)C1 (mixture of isomers) [Example 7f, (S)-2-(4-(2-(1-Cyclopropylethyl)-7-(methylsulfonyl)-1-oxoisoindolin-5-yl)pyridin-2-yl)-N-(3-hydroxycyclobutyl)-4-methyl-1H-imidazole-5-carboxamide, trifluoroacetate salt (mixture of two diastereomers)] | –
< 100 | 100 to 500 | 100 to 500 | Cc1[nH]c(-c2cc(-c3cc4c(c(S(C)(=O)=O)c3)C(=O)N([C@@H](C)C3CC3)C4)ccn2)nc1C(=O)NC1CCOC1 (mixture of isomers) [Example 7n, 2-(4-(2-((S)-1-Cyclopropylethyl)-7-(methylsulfonyl)-1-oxoisoindolin-5-yl)pyridin-2-yl)-4-methyl-N-(tetrahydrofuran-3-yl)-1H-imidazole-5-carboxamide, trifluoroacetate salt (mixture of two diastereomers)] | –
